# Assay results: ChEMBL document CHEMBL1135943, “Modifications and structure-activity relationships at the 2-position of 4-sulfonamidopyrimidine derivatives as potent endothelin antagonists” (Bioorg Med Chem Lett, 2002)
# pIC50: −log10 of the molar value.
# How the values were obtained:
# [1] = target: T1, Endothelin receptor type B (Rattus norvegicus, UniProt P21451); test: In vitro inhibition of [125 I]ET-1 binding to Endothelin B receptor (ETB-receptor) in rat cerebellum membranes; assay type: cell membranes, Membrane
# T1 sequence (P21451 whole entry): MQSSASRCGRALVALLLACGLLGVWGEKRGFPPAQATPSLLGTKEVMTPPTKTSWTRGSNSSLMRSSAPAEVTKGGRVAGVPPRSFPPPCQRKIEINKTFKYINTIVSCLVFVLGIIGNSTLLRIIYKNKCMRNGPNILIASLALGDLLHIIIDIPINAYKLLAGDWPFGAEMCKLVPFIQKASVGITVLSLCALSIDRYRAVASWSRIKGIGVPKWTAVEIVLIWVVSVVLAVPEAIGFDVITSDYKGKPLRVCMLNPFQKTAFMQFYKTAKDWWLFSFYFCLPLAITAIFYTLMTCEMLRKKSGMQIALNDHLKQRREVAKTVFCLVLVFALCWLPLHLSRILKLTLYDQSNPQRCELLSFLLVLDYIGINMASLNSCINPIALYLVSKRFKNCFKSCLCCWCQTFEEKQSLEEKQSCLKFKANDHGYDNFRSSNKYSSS
# [2] = Water solubility at pH 7.4; assay type: physicochemical
# [3] = target: T2, Endothelin-1 receptor (Sus scrofa, UniProt Q29010); test: In vitro inhibition of [125 I]ET-1 binding to Endothelin A receptor in porcine aortic membrane.; assay type: cell membranes
# T2 sequence (Q29010 whole entry): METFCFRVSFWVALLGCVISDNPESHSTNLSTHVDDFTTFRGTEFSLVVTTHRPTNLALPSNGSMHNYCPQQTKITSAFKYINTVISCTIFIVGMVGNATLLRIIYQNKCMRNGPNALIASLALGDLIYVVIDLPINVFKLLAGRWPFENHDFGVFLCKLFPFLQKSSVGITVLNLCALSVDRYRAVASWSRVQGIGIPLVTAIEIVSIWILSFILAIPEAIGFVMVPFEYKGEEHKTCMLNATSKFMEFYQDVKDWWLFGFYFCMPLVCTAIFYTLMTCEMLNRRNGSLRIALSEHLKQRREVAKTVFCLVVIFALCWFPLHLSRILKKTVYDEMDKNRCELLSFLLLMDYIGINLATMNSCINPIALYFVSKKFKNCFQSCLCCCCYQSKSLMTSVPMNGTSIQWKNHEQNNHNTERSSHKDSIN
# [4] = Water solubility at pH 7.5; assay type: physicochemical
pIC50 [3],Compound,other results
8.41,Cc1ccc(-c2c(NS(=O)(=O)c3ccc(C(C)(C)C)cc3)nc(-c3cccs3)nc2OCCOc2ncc(Br)cn2)cc1,–
< 8.00,COc1ccccc1Oc1c(NS(=O)(=O)c2ccc(C(C)(C)C)cc2)nc(C(F)(F)F)nc1OCCOc1ncc(Br)cn1,–
8.57,COc1ccccc1Oc1c(NS(=O)(=O)c2ccc(C(C)(C)C)cc2)nc(C)nc1OCCOc1ncc(Br)cn1,–
9.82,COc1ccccc1Oc1c(NS(=O)(=O)c2ccc(C(C)(C)C)cc2)nc(SCCO)nc1OCCOc1ncc(Br)cn1,–
11.60,COc1ccccc1Oc1c(NS(=O)(=O)c2ccc(C(C)(C)C)cc2)nc(N2CCC(O)CC2)nc1OCCOc1ncc(Br)cn1,pIC50 [1]: < 9.00; solubility [2]: 2570 µg/mL
8.80,CCCc1nc(NS(=O)(=O)c2ccc(C(C)(C)C)cc2)c(-c2ccc(C)cc2)c(OCCOc2ncc(Br)cn2)n1,–
10.37,Cc1ccc(-c2c(NS(=O)(=O)c3ccc(C(C)(C)C)cc3)nc(-c3ccccn3)nc2OCCOc2ncc(Br)cn2)cc1,–
10.59,CCCc1nc(NS(=O)(=O)c2ccc(C(C)(C)C)cc2)c(Oc2ccccc2OC)c(OCCOc2ncc(Br)cn2)n1,–
< 8.00,Cc1ccc(-c2c(NS(=O)(=O)c3ccc(C(C)(C)C)cc3)nc(-c3ccccc3)nc2OCCOc2ncc(Br)cn2)cc1,–
8.96,Cc1ccc(-c2c(NS(=O)(=O)c3ccc(C(C)(C)C)cc3)nc(C(C)C)nc2OCCOc2ncc(Br)cn2)cc1,–

# The remaining lines, values behind:
Compound,pIC50 [3],other results
COc1ccccc1Oc1c(NS(=O)(=O)c2ccc(C(C)(C)C)cc2)ncnc1OCCOc1ncc(Br)cn1,–,pIC50 [1]: < 9.00; solubility [2]: 160 µg/mL
Cc1ccc(-c2c(NS(=O)(=O)c3ccc(C(C)(C)C)cc3)ncnc2OCCOc2ncc(Br)cn2)cc1,> 12.00,solubility [4]: 1.6 µg/mL
COc1ccccc1Oc1c(NS(=O)(=O)c2ccc(C(C)(C)C)cc2)nc(NCCO)nc1OCCOc1ncc(Br)cn1,11.28,pIC50 [1]: < 9.00; solubility [2]: 7320 µg/mL
COc1ccccc1Oc1c(NS(=O)(=O)c2ccc(C(C)(C)C)cc2)nc(OCCO)nc1OCCOc1ncc(Br)cn1,9.70,–
COc1ccccc1Oc1c(NS(=O)(=O)c2ccc(C(C)(C)C)cc2)nc(N)nc1OCCOc1ncc(Br)cn1,< 8.00,–
COc1ccccc1Oc1c(NS(=O)(=O)c2ccc(C(C)(C)C)cc2)nc(N(C)CCO)nc1OCCOc1ncc(Br)cn1,< 8.00,–
CNCCNc1nc(NS(=O)(=O)c2ccc(C(C)(C)C)cc2)c(Oc2ccccc2OC)c(OCCOc2ncc(Br)cn2)n1,< 8.00,–
COc1nc(NS(=O)(=O)c2ccc(C(C)(C)C)cc2)c(Oc2ccccc2OC)c(OCCOc2ncc(Br)cn2)n1,< 8.00,–
COc1ccccc1Oc1c(NS(=O)(=O)c2ccc(C(C)(C)C)cc2)nc(SCCC(=O)O)nc1OCCOc1ncc(Br)cn1,8.00,–
COc1ccccc1Oc1c(NS(=O)(=O)c2ccc(C(C)(C)C)cc2)nc(N2CCN(C)CC2)nc1OCCOc1ncc(Br)cn1,9.35,–
COc1ccccc1Oc1c(NS(=O)(=O)c2ccc(C(C)(C)C)cc2)nc(NCCCO)nc1OCCOc1ncc(Br)cn1,< 8.00,–
